# Measured values reported in patent US20080026065A1, “Powdered Compositions Of Sensitive Active Materials In An At Least Partially Amorphous State” (priority 2004, published 2008).
# Assay: Moisture uptake at 75% relative humidity, gravimetric
# Assay type: physicochemical
# Conditions: freeze dried matrices, 75% RH atmosphere, 8 hours; for moisture uptake (percentage weight increase): FIG. 1
# Experimental: Following lyophilisation the resultant freeze dried matrices were exposed to a 75% RH (Relative Humidity) atmosphere for a period of 8 hours. At intervals over this period, moisture uptake of each sample was measured gravimetrically and calculated as a percentage weight increase of the sample.
SMILES,moisture uptake (percentage weight increase),physical quality of sample after moisture exposure
OC[C@@H](O)[C@@H](O)[C@H](O)[C@H](O)CO [mannitol],no appreciable moisture uptake,
OC[C@H]1O[C@H](O[C@H]2O[C@H](CO)[C@@H](O)[C@H](O)[C@H]2O)[C@H](O)[C@@H](O)[C@@H]1O [trehalose],significant moisture uptake,deterioration in the physical quality
